Columns and labels:
Assay type in all cases: cell-based
CAKI-1 = assay: SRB growth assay, 6 days exposure, renal cancer; conditions: CAKI-1, 6 days
Method: (§1) Arsenic trioxide (1 mg/ml, 10 mg/ampoule, manufactured by Taylor Pharmaceuticals, Decatur, Ill.) was tested at five concentrations each at 10-fold dilutions, i.e., 10^−5, 10^−6, 10^−7, 10^−8 and 10^−9 μg/ml.
(§2) The in vitro tests were performed by incubating the test cells in the presence of the indicated concentration of arsenic trioxide under standard culture conditions for a designated period of time, which is followed by a sulforhodamine B (SRB) protein assay to estimate cell viability or growth. The cell lines are organized into subpanels according to the origin of the cell lines, e.g., leukemia, breast cancer, etc. A description of the cell lines and method of testing is described in Monk et al. (1997, Anticancer Drug Des. 12:533-41) and Weinstein et al., (1997, Science 275:343-9), which are incorporated herein in their entirety.
(§3) The measurement of an effect is expressed in Percentage Growth (PG). The measured effect of the compound on a cell line is calculated according to one or the other of the following two expressions: If (Mean ODtest−Mean ODzero)≧0. then PG=100×(Mean ODtest−Mean ODzero)/(Mean ODctrl−Mean ODzero) If (Mean ODtest−Mean ODzero)<0. then PG=100×(Mean ODtest−Mean ODzero)/(Mean ODzero where: • Mean ODzero=the average of optical density measurements of SRB-derived color just before exposure of cells to the test compounds; • Mean ODtest=the average of optical density measurements of SRB-derived color after exposure of cells to the test compound for a designated period of time; and • Mean ODctrl=the average of optical density measurements of SRB-derived color after with no exposure of cells to the test compound for a designated period of time
(§4) The first two columns describe the subpanel (e.g., leukemia) and cell line (e.g., CCRF-CEM) involved. The next two columns list the Mean ODzero and Mean ODctrl; the next five columns list the Mean ODtest for each of five different concentrations. Each concentration is expressed as the log10 (molar or μg/ml). The next five columns list the calculated PGs for each concentration. The response parameters GI50, TGI and LC50 are interpolated values representing the concentrations at which the PG is +50, 0, and −50, respectively. Sometimes these response parameters cannot be obtained by interpolation. If, for instance, all of the PGs in a given row exceed +50, then none of the three parameters can be obtained by interpolation. In such a case, the value given for each response parameter is the highest concentration tested and is preceded by a “>” sign. This practice is extended similarly to the other possible situations where a response parameter cannot be obtained by interpolation.
(§5) In the first set, the cells from 56 different cancer cell lines were exposed to five concentrations of arsenic trioxide continuously for two days prior to performing the SRB assay. In the second set, the cells from 50 different cell lines (a subset of the first 56 cell lines, plus the renal cancer cell line 786-0) were exposed continuously for six days prior to the SRB assay.

A498 = assay: SRB growth assay, 6 days exposure, renal cancer; conditions: A498, 6 days
Method: as §1, §2, §3, §4, §5

S12C = assay: SRB growth assay, 6 days exposure, renal cancer
Method: as §1, §2, §3, §4, §5

786-O = assay: SRB growth assay, 6 days exposure, renal cancer; conditions: 786-0, 6 days
Method: as §1, §2, §3, §4, §5

RXF 393 = assay: SRB growth assay, 6 days exposure, renal cancer; conditions: RXF393, 6 days
Method: as §1, §2, §3, §4, §5

TK-10 = assay: SRB growth assay, 6 days exposure, renal cancer; conditions: TK-10, 6 days
Method: as §1, §2, §3, §4, §5

M14 = assay: SRB growth assay, 2 days exposure, melanoma
Method: as §1, §2, §3, §4, §5

arsenic trioxide
TGI (CAKI-1): 2.43E−06 | Mean Optical Densities (CAKI-1; Log 10 Concentration −4.9): 0.004 | Percent Growth (CAKI-1; Log 10 Concentration −4.9): −88% | Mean Optical Densities (CAKI-1; Log 10 Concentration −5.9): 0.491 | Percent Growth (CAKI-1; Log 10 Concentration −5.9): 35% | Mean Optical Densities (CAKI-1; Log 10 Concentration −6.9): 1.573 | Percent Growth (CAKI-1; Log 10 Concentration −6.9): 117% | Mean Optical Densities (CAKI-1; Log 10 Concentration −7.9): 1.725 | Percent Growth (CAKI-1; Log 10 Concentration −7.9): 128% | Mean Optical Densities (CAKI-1; Log 10 Concentration −8.9): 1.254 | Percent Growth (CAKI-1; Log 10 Concentration −8.9): 93% | TGI (A498): 4.85E−06 | Mean Optical Densities (A498; Log 10 Concentration −4.9): 0.025 | Percent Growth (A498; Log 10 Concentration −4.9): −52% | Mean Optical Densities (A498; Log 10 Concentration −5.9): 0.558 | Percent Growth (A498; Log 10 Concentration −5.9): 73% | Mean Optical Densities (A498; Log 10 Concentration −6.9): 0.837 | Percent Growth (A498; Log 10 Concentration −6.9): 114% | Mean Optical Densities (A498; Log 10 Concentration −7.9): 0.764 | Percent Growth (A498; Log 10 Concentration −7.9): 103% | Mean Optical Densities (A498; Log 10 Concentration −8.9): 0.826 | Percent Growth (A498; Log 10 Concentration −8.9): 112% | LC50 (concentration killing 50% of cells) (S12C): > 12.6 µM | TGI (S12C): 5.67E−06 | Mean Optical Densities (S12C; Log 10 Concentration −4.9): 0.013 | Percent Growth (S12C; Log 10 Concentration −4.9): −46% | Mean Optical Densities (S12C; Log 10 Concentration −5.9): 0.829 | Percent Growth (S12C; Log 10 Concentration −5.9): 86% | Mean Optical Densities (S12C; Log 10 Concentration −6.9): 1.113 | Percent Growth (S12C; Log 10 Concentration −6.9): 117% | Mean Optical Densities (S12C; Log 10 Concentration −7.9): 1.141 | Percent Growth (S12C; Log 10 Concentration −7.9): 120% | Mean Optical Densities (S12C; Log 10 Concentration −8.9): 0.882 | Percent Growth (S12C; Log 10 Concentration −8.9): 92% | TGI (786-O): 2.77E−06 | Mean Optical Densities (786-O; Log 10 Concentration −4.9): −0.003 | Percent Growth (786-O; Log 10 Concentration −4.9): −100% | Mean Optical Densities (786-O; Log 10 Concentration −5.9): 0.832 | Percent Growth (786-O; Log 10 Concentration −5.9): 52% | Mean Optical Densities (786-O; Log 10 Concentration −6.9): 1.786 | Percent Growth (786-O; Log 10 Concentration −6.9): 113% | Mean Optical Densities (786-O; Log 10 Concentration −7.9): 1.821 | Percent Growth (786-O; Log 10 Concentration −7.9): 116% | Mean Optical Densities (786-O; Log 10 Concentration −8.9): 1.582 | Percent Growth (786-O; Log 10 Concentration −8.9): 100% | TGI (RXF 393): 2.96E−06 | Mean Optical Densities (RXF 393; Log 10 Concentration −4.9): 0.017 | Percent Growth (RXF 393; Log 10 Concentration −4.9): −91% | Mean Optical Densities (RXF 393; Log 10 Concentration −5.9): 0.909 | Percent Growth (RXF 393; Log 10 Concentration −5.9): 54% | Mean Optical Densities (RXF 393; Log 10 Concentration −6.9): 1.727 | Percent Growth (RXF 393; Log 10 Concentration −6.9): 116% | Mean Optical Densities (RXF 393; Log 10 Concentration −7.9): 1.301 | Percent Growth (RXF 393; Log 10 Concentration −7.9): 84% | Mean Optical Densities (RXF 393; Log 10 Concentration −8.9): 1.327 | Percent Growth (RXF 393; Log 10 Concentration −8.9): 86% | TGI (TK-10): >1.26E−05 | Mean Optical Densities (TK-10; Log 10 Concentration −4.9): 0.239 | Percent Growth (TK-10; Log 10 Concentration −4.9): 13% | Mean Optical Densities (TK-10; Log 10 Concentration −5.9): 1.103 | Percent Growth (TK-10; Log 10 Concentration −5.9): 82% | Mean Optical Densities (TK-10; Log 10 Concentration −6.9): 1.334 | Percent Growth (TK-10; Log 10 Concentration −6.9): 100% | Mean Optical Densities (TK-10; Log 10 Concentration −7.9): 1.268 | Percent Growth (TK-10; Log 10 Concentration −7.9): 95% | Mean Optical Densities (TK-10; Log 10 Concentration −8.9): 1.356 | Percent Growth (TK-10; Log 10 Concentration −8.9): 102% | CC50 (TK-10; read-out: LC50 (the source's name)): > 12.6 µM | TGI (M14): >0.0126 ng/mL | Percent Growth (M14; log10 conc −4.9): 3% | Percent Growth (M14; log10 conc −5.9): 87% | Percent Growth (M14; log10 conc −6.9): 96% | Percent Growth (M14; log10 conc −7.9): 105% | Percent Growth (M14; log10 conc −8.9): 98%
